According to patent US6828315B1, “1-Amino triazoloc4,3-a! quinazoline-5-ones and/or -5-thiones inhibiting phosphodiesterase IV” (Warner-Lambert LLC, priority 1999, dated 2004):

How the values were obtained:
[1] = biological target: type 4 phosphodiesterases (PDE4); assay: Inhibition of the phosphodiesterase (PDE4), enzymatic preparation from line U937; assay type: biochemical; conditions: PDE4 from cytosolic preparation of human cell line U937
Protocol: The capacity of the formula (I) compounds of the invention to inhibit the cyclic nucleotide phosphodiesterases is evaluated by their Cl50 measurement (necessary concentration to inhibit 50% of enzymatic activity).
The type 4 phosphodiesterases are obtained from a cytosolic preparation extracted from the human origin cellular line U937 according to a method adapted from T. J. Torphy and al., 1992, J.Pharm.Exp. Ther. 263: 1195-1205
The other classes of phosphodiesterases are obtained after partial purification FPLC on Mono Q column. (anion exchange column) according to a method adapted from Lavan B. E., Lakey T., Houslay M. D. Biochemical Pharmacology, 1989, 38(22), 4123-4136., and from Silver P. J and al., 1988, Eur.J. Pharmacol. 150: 85-94, either, from human origin cellular lines for PDE 1 (monocytar line TPH1) and PDE5 (line MCF7 issued from an adenocarcinoma), or from dog aorta for PDE 3, or for the human PDE3A, from gene cloning in insect cells SF21 in baculovirus, according to a method adapted from Luckow, V. A. and al., 1991 in Recombinant DNA Technology&Applications.,eds. Prokop, Bajpai,R. K.&Ho,C. S., pp97-152. The enzymatic activity measurement of the different PDE classes, and in particular the PDE 4, is performed according to a method adapted from W. J. Thompson and al. 1979, Advances in Cyclic Nucleotide Research, Vol. 10: 69-92, ed. G. Brooker and al. Raven Press, NY.
For the Cl50 determination, the enzymatic activity is measured in the presence of inhibitor within concentration margins of 0.1 to 100 μM.
The following table illustrates the PDE4 inhibitory activity from enzymatic preparation obtained from the line U937.

IC50 [1] [nM] | melting point | SMILES
53 | 179 °C | O=c1c2cc(Br)ccc2n2c(N3CCCCCC3)nnc2n1Cc1ccc(Cl)cc1 [Compound 32, 1-(azepan-1-yl)-7-bromo-4-(4-chloro-benzyl)-4H-[1,2,4]triazolo[4,3-a]quinazolin-5-one]
56 | 190 °C | N#Cc1ccc(Cn2c(=O)c3cc(Br)ccc3n3c(N4CCCCCC4)nnc23)cc1 [Compound 34, 4-(1-Azepan-1-yl-7-bromo-5-oxo-5H-[1,2,4]triazolo[4,3-a]quinazolin-4-ylmethyl)-benzonitrile]
15 | 155 °C | O=c1c2cc(Br)ccc2n2c(N3CCCCCC3)nnc2n1CC=Cc1ccccc1 [Compound 37, 1-(azepan-1-yl)-7-bromo-4-(3-phenylallyl)-4H-[1,2,4]triazolo[4,3-a]quinazolin-5-one]
14 | 185 °C | O=c1c2cc(Br)ccc2n2c(N3CCCCCC3)nnc2n1C/C=C/c1cccnc1 [Compound 40, 1-Azepan-1-yl-7-bromo-4-((E)-3-pyridin-3-yl-allyl)-4H-[1,2,4]triazolo[4,3-a]quinazolin-5-one]
18 | 216 °C | O=c1c2cc(Br)ccc2n2c(N3CCCCCC3)nnc2n1CC=Cc1ccncc1 [Compound 41, 1-Azepan-1-yl-7-bromo-4-(3-pyridin-4-yl-allyl)-4H-[1,2,4]triazolo[4,3-a]quinazolin-5-one]
24 | 215 °C | Cc1ccc(Cn2c(=O)c3cc(Br)ccc3n3c(N4CCCC4)nnc23)cc1 [Compound 42, 7-Bromo-4-(4-methyl-benzyl)-1-pyrrolidin-1-yl-4H-[1,2,4]triazolo[4,3-a]quinazolin-5-one]
30 | 105 °C | O=c1c2cc(Br)ccc2n2c(N3CCCC3)nnc2n1Cc1ccc(Cl)cc1 [Compound 43, 7-Bromo-4-(4-chloro-benzyl)-1-pyrrolidin-1-yl-4H-[1,2,4]triazolo[4,3-a]quinazolin-5-one]
90 | 166 °C | O=c1c2cc(Br)ccc2n2c(N3CCCC3)nnc2n1Cc1ccc(F)cc1 [Compound 44, 7-Bromo-4-(4-fluoro-benzyl)-1-pyrrolidin-1-yl-4H-[1,2,4]triazolo[4,3-a]quinazolin-5-one]
50 | 205 °C | COC(=O)c1ccc(Cn2c(=O)c3cc(Br)ccc3n3c(N4CCCC4)nnc23)cc1 [Compound 47, 4-(7-Bromo-5-oxo-1-pyrrolidin-1-yl-5H-[1,2,4]triazolo[4,3-a]quinazolin-4-ylmethyl)-benzoic acid methyl ester]
25 | 200 °C | O=c1c2cc(Br)ccc2n2c(N3CCCC3)nnc2n1Cc1ccc([N+](=O)[O-])cc1 [Compound 48, 7-Bromo-4-(4-nitro-benzyl)-1-pyrrolidin-1-yl-4H-[1,2,4]triazolo[4,3-a]quinazolin-5-one]
80 | 169 °C | COc1ccc(Cn2c(=O)c3cc(Br)ccc3n3c(N4CCCC4)nnc23)cc1 [Compound 49, 7-Bromo-4-(4-methoxy-benzyl)-1-pyrrolidin-1-yl-4H-[1,2,4]triazolo[4,3-a]quinazolin-5-one]
35 | 195 °C | CC(=O)Oc1ccc(Cn2c(=O)c3cc(Br)ccc3n3c(N4CCCC4)nnc23)cc1 [Compound 50, Acetic acid 4-(7-bromo-5-oxo-1-pyrrolidin-1-yl-5H-[1,2,4]triazolo[4,3-a]quinazolin-4-ylmethyl)-phenyl ester]
27 | 288 °C | O=c1c2cc(Br)ccc2n2c(N3CCCC3)nnc2n1Cc1ccc(O)cc1 [Compound 51, 7-Bromo-4-(4-hydroxy-benzyl)-1-pyrrolidin-1-yl-4H-[1,2,4]triazolo[4,3-a]quinazolin-5-one]
30 | 151 °C | COc1ccc(Cn2c(=O)c3cc(Br)ccc3n3c(N4CCCC4)nnc23)cc1OC [Compound 52, 7-Bromo-4-(3,4-dimethoxy-benzyl)-1-pyrrolidin-1-yl-4H-[1,2,4]triazolo[4,3-a]quinazolin-5-one]
14 | 152 to 155 °C | O=c1c2cc(Br)ccc2n2c(N3CCCC3)nnc2n1CC=Cc1ccccc1 [Compound 57, 1-(pyrrolidin-1-yl)-7-bromo-4-(3-phenylallyl)-4H-[1,2,4]triazolo[4,3-a]quinazolin-5-one]
90 | 187 °C | O=c1c2cc(Br)ccc2n2c(N3CCCC3)nnc2n1C/C=C/c1ccc(Cl)cc1 [Compound 59, 7-Bromo-4-[(E)-3-(4-chloro-phenyl)-allyl]-1-pyrrolidin-1-yl-4H-[1,2,4)triazolo[4,3-a]quinazolin-5-one]

IC50 [1] [nM] | melting point | SMILES
50 | 171 °C | COc1ccc(C=CCn2c(=O)c3cc(Br)ccc3n3c(N4CCCC4)nnc23)cc1 [Compound 60, 7-Bromo-4-[3-(4-methoxy-phenyl)-allyl]-1-pyrrolidin-1-yl-4H-[1,2,4]triazolo[4,3-a]quinazolin-5-one]
11 | 102 °C | O=c1c2cc(Br)ccc2n2c(N3CCCC3)nnc2n1CC=Cc1cccnc1 [Compound 61, 7-Bromo-4-(3-pyridin-3-yl-allyl)-1-pyrrolidin-1-yl-4H-[1,2,4]triazolo[4,3-a]quinazolin-5-one]
53 | 167 °C | O=c1c2cc(Br)ccc2n2c(N3CCCC3)nnc2n1C/C=C/c1ccncc1 [Compound 62, 7-Bromo-4-((E)-3-pyridin-4-yl-allyl)-1-pyrrolidin-1-yl-4H-[1,2,4]triazolo[4,3-a]quinazolin-5-one]
78 | 178 °C | COc1ccc(Cn2c(=O)c3cc(Br)ccc3n3c(N4CCCCC4)nnc23)cc1OC [Compound 75, 7-Bromo-4-(3,4-dimethoxy-benzyl)-1-piperidin-1-yl-4H-[1,2,4]triazolo[4,3-a]quinazolin-5-one]
38 | 223 °C | Cc1ccc(Cn2c(=O)c3cc(Br)ccc3n3c(N(C)C)nnc23)cc1 [Compound 78, 7-Bromo-1-dimethylamino-4-(4-methyl-benzyl)-4H-[1,2,4]triazolo[4,3-a]quinazolin-5-one]
73 | 284 °C | CN(C)c1nnc2n(Cc3ccc(O)cc3)c(=O)c3cc(Br)ccc3n12 [Compound 80, 7-Bromo-1-dimethylamino-4-(4-hydroxy-benzyl)-4H-[1,2,4]triazolo[4,3-a]quinazolin-5-one]
16 | 197 °C | COC(=O)c1ccc(Cn2c(=O)c3cc(Br)ccc3n3c(N(C)C)nnc23)cc1 [Compound 81, 4-(7-Bromo-1-dimethylamino-5-oxo-5H-[1,2,4]triazolo[4,3-a]quinazolin-4-ylmethyl)-benzoic acid methyl ester]
12 | 230 °C | CN(C)c1nnc2n(Cc3ccc(CC#N)cc3)c(=O)c3cc(Br)ccc3n12 [Compound 83, [4-(7-Bromo-1-dimethylamino-5-oxo-5H-[1,2,4]triazolo[4,3-a]quinazolin-4-ylmethyl)-phenyl]-acetonitrile]
27 | 159 °C | CN(C)c1nnc2n(CC#Cc3ccccc3)c(=O)c3cc(Br)ccc3n12 [Compound 89, 7-Bromo-1-dimethylamino-4-(3-phenyl-prop-2-ynyl)-4H-[1,2,4]triazolo[4,3-a]quinazolin-5-one]
30 | 195 °C | Cc1ccc2c(c1)c(=O)n(CC=Cc1ccccc1)c1nnc(N3CCCCCC3)n21 [Compound 92, 1-Azepan-1-yl-7-methyl-4-(3-phenyl-allyl)-4H-[1,2,4]triazolo[4,3-a]quinazolin-5-one]
58 | 262 °C | Cc1ccc2c(c1)c(=O)n(Cc1ccc(CC(=O)O)cc1)c1nnc(N3CCCC3)n21 [Compound 96, [4-(7-Methyl-5-oxo-1-pyrrolidin-1-yl-5H-[1,2,4]triazolo[4,3-a]quinazolin-4-ylmethyl)-phenyl]-acetic acid]
90 | 83 °C | COC(=O)C(c1ccccc1)n1nc(N(C)C)n2c3ccc(Br)cc3c(=O)nc12 (centres unmarked) [Compound 156, (7-Bromo-1-dimethylamino-5-oxo-5H-[1,2,4]triazolo[4,3-a]quinazolin-3-yl)-phenyl-acetic acid methyl ester]
78 | 184 °C | O=c1c2cc(I)ccc2n2c(N3CCCC3)nnc2n1Cc1ccccc1 [Compound 189, 4-Benzyl-7-iodo-1-pyrrolidin-1-yl-4H-[1,2,4]triazolo[4,3-a]quinazolin-5-one]
190 | 183 °C | Cc1ccc2c(c1)c(=O)n(Cc1ccccc1)c1nnc(N3CCCCCC3)n21 [Compound 190, 1-Azepan-1-yl-4-benzyl-7-methyl-4H-[1,2,4]triazolo[4,3-a]quinazolin-5-one]
75 | 240 °C (dec.) | Nc1ccc2c(c1)c(=O)n(Cc1ccccc1)c1nnc(N3CCCCCC3)n21 [Compound 224, 7-Amino-1-azepan-1-yl-4-benzyl-4H-[1,2,4]triazolo[4,3-a]quinazolin-5-one]
